Results on one compound are retold here after article PMC9295568, “Dual Inhibition of Vacuolar-ATPase and TMPRSS2 Is Required for Complete Blockade of SARS-CoV-2 Entry into Cells” (Antimicrobial Agents and Chemotherapy, 2022).

Assay type in all cases: cell-based
For test [1], the system named is SARS-CoV-2 PsV D614G. As to conditions: read-out: IC50, inhibition of PsV entry.
Test [2] has as its system SARS-CoV-2 PsV D614G. As to conditions: read-out: IC50, inhibition of PsV entry. This is another data set of the same source.
The subject of test [3] is SARS-CoV-2 PsV B.1.1.529 (Omicron). The experiment in a line: microbe, parasite or virus in culture. As to conditions: Omicron variant, Vero-TMPRSS2 cells.

Broadly, the IC50 is the midpoint of a concentration-inhibition curve.

Where two headings read alike, the source gives them in different places. A value given as a limit tells only on which side of the number the result lay.

For the compound `CN(C)C(=O)COC(=O)Cc1ccc(OC(=O)c2ccc(NC(=N)N)cc2)cc1` [Camostat], the IC50 with SARS-CoV-2 PsV D614G [1] is 0.199 µM; in the test with SARS-CoV-2 PsV D614G [2] it was > 300 µM. In addition, in test [3], the “inhibition of PsV entry (in words)” value was “unable to inhibit”.
